The text below walks through data of article PMC7031697, “Mechanism of Activation of AMPK by Cordycepin” (Cell Chemical Biology, 2020).

Structures are written as SMILES. Like-named read-outs stand apart in the source and are kept apart here.

Assay [1] deals with T1, AMPK complexes containing WT γ2 (Homo sapiens, UniProt Q9UGJ0).
T1 construct: expressed in transfected cells; host or cells: HepG2 (transient, Fugene 6)
The assay can be described thus: AMPK activity in anti-FLAG immunoprecipitates, HepG2 cells with FLAG-tagged WT AMPK-γ2. Type of assay: cell-based. As to conditions: 1 h, 300 μM cordycepin, 10 mM phenformin or 300 μM A-769662. Here is the method:
(§1) HepG2 cells ([…]) were cultured in Minimum Essential Medium (MEM) supplemented with 10% (v/v) FBS, 1% (v/v) non-essential amino acids and 1% (v/v) penicillin/streptomycin. Transient transfection of DNAs encoding FLAG-tagged AMPK-γ2 or an R531G mutant of AMPK-γ2 were carried out 36-48 hr prior to experiments using Fugene 6 according to manufacturers’ instructions. U2OS cells ([…]) were cultured in Dulbecco’s Modified Eagle’s Medium (DMEM) supplemented with 10% (v/v) FBS and 1% (v/v) penicillin/streptomycin.
(§2) HepG2 cells were transiently transfected with DNAs encoding FLAG-tagged wild type AMPK-γ2 or the R531G mutant, using Fugene 6 according to the manufacturers’ instructions. After transfection for 48 hr, cells were treated with various agents as described, and cell lysates prepared ([Hawley et al., 2018]). FLAG-tagged AMPK was then immunoprecipitated from 150 μg total protein by incubation at 4°C for 2 hr on a roller mixer with 9 μl of EZview Red anti-FLAG M2 affinity gel. After extensive washing, the immunoprecipitates were assayed for AMPK activity (50 μg per assay in a total volume of 50 μl) using the AMARA peptide (200 μM) as substrate in the presence of 200 μM AMP, 5 mM MgCl2 and 200 μM γ-^32P-ATP as described previously ([Fyffe et al., 2018]).

The target of assay [2] is T2, AMPK complexes containing the R531G mutant (Homo sapiens, UniProt Q9UGJ0, R531G).
T2 construct: expressed in transfected cells; host or cells: HepG2 (transient, Fugene 6)
The assay can be described thus: AMPK activity in anti-FLAG immunoprecipitates, HepG2 cells with FLAG-tagged AMPK-γ2 R531G mutant. As to conditions: 1 h, 300 μM cordycepin, 10 mM phenformin or 300 μM A-769662. Type of assay: cell-based. The protocol:
as §1, §2

Assay [3] concerns rat liver AMPK. The assay can be described thus: Cell-free inhibition of Thr172 dephosphorylation by PP2Cα. Type of assay: biochemical. To be noted: fit of AMPK activity as a function of CoMP concentration; read-out: EC50 of protection against inactivation and Thr172 dephosphorylation by PP2Cα. Here is the method: These were as described previously ([Fyffe et al., 2018]) with some modifications. Rat liver AMPK (12.5 μg/ml) was incubated in a shaking incubator at 30°C for 10 min in Hepes buffer (50 mM Na Hepes pH 7.4, 150 mM NaCl, 1 mM dithiothreitol, 0.02% (w/v) Brij-35) with MgCl2 and sufficient PP2Cα to yield about 70% inactivation in the absence of added nucleotide. Aliquots were removed for Western blotting and AMPK assay. Kinase assays were performed immediately after a further 100-fold dilution, which was sufficient to prevent dephosphorylation during the assay.

Assay [4] concerns AMPK purified from rat liver. The assay can be described thus: Allosteric activation of purified rat liver AMPK (SAMS peptide, cell-free). The class given is biochemical. Here is the method:
AMPK (15 ng) purified from rat liver was assayed in solution using the SAMS peptide as substrate ([Fyffe et al., 2018]) in the presence of AMP or CoMP (concentrations specified in Figure legends), and either 5 mM MgCl2 and 200 μM [γ-^32P]ATP or 9.8 mM MgCl2 and 5 mM [γ-^32P]ATP, thus maintaining a constant excess of [Mg^2+] over [ATP] ([Storer and Cornish-Bowden, 1976]). Total assay volume was 25 μl.

Assay [5] deals with T3, human α2β2γ1 complex (Homo sapiens, UniProt P54619+P54646).
T3 construct: made in house
The assay can be described thus: Cell-free promotion of Thr172 phosphorylation by LKB1. As to conditions: varying CoMP, 200 μM ATP. The class given is biochemical. Here is the method:
These were as described previously ([Fyffe et al., 2018]) with some modifications. Bacterially expressed human AMPK (α2β2γ1 complex, unphosphorylated on Thr172, 500 ng) was incubated for 10 min in a total volume of 25 μl with 200 μM ATP, […] with/without the LKB1:STRAD:MO25 complex (10 ng), in the presence or absence of AMP (200 μM) or cordycepin as indicated. Aliquots were removed for Western blotting and AMPK assays.

Assay [6] has as its system AMPK. The assay can be described thus: Effect of adenosine kinase and transport inhibitors on AMPK activation in HepG2 cells. The class given is cell-based, human. As to conditions: 1 μM ABT-702 or 0.5 μM dipyridamole; for effect of cordycepin to activate and phosphorylate AMPK: 300 μM cordycepin 1 h; for effects of AICA riboside on AMPK: 3 mM AICAR 1 h. The protocol:
Endogenous AMPK in crude cell lysates was first immunoprecipitated using an equal mixture of anti-α1 and –α2 antibodies (150 μg protein) by incubation at 4°C for 2 hr on a roller mixer. After extensive washing, the immunoprecipitates were assayed for AMPK activity (50 μg per assay, total assay volume 50 μl) using the AMARA peptide (200 μM) as substrate in the presence of 200 μM AMP, 5 mM MgCl2 and 200 μM [γ-^32P]ATP ([Fyffe et al., 2018]).

The target in assay [7] is T3, human α2β2γ1 complex. The assay can be described thus: AMPK assay using ATP or CoTP as co-substrate (GST-ACC1 phosphorylation). The class given is biochemical. To be noted: for Km / estimated Vmax as phosphate donor: GST-ACC1 substrate; for Km: Mg2+ at constant 4.8 mM excess, read-out: Km as phosphate donor; for estimated Vmax as phosphate donor: Michaelis-Menten fit; for effect on allosteric activation by AMP: at high concentrations (5 mM); for allosteric activation: 30 μM AMP. The protocol:
As ^32P-labelled CoTP was not available, the experiments in Figures 3C and 3D were performed using non-radioactive CoTP and utilized as co-substrate a construct of glutathione-S-transferase fused at the N-terminus of residues 60-94 of rat ACC1 ([Scott et al., 2002]), which includes the Ser79 phosphorylation site. Bacterially expressed GST-ACC (0.5 μg) was incubated for 10 min in a total volume of 25 μl with bacterially expressed human AMPK (30 ng of α2β2γ1 complex, previously phosphorylated on Thr172 using CaMKK2) with ATP or CoTP as indicated, and sufficient MgCl2 to maintain a constant 4.8 mM excess of [Mg^2+] over [ATP]. Phosphorylation of this substrate was detected using anti-pACC antibody and quantified using a LiCor Odyssey imager.

Setting [8] is: 200 μM ATP, for CoMP estimated with maximal activation constrained to 4.4-fold.

T3 sequence (P54646 whole entry): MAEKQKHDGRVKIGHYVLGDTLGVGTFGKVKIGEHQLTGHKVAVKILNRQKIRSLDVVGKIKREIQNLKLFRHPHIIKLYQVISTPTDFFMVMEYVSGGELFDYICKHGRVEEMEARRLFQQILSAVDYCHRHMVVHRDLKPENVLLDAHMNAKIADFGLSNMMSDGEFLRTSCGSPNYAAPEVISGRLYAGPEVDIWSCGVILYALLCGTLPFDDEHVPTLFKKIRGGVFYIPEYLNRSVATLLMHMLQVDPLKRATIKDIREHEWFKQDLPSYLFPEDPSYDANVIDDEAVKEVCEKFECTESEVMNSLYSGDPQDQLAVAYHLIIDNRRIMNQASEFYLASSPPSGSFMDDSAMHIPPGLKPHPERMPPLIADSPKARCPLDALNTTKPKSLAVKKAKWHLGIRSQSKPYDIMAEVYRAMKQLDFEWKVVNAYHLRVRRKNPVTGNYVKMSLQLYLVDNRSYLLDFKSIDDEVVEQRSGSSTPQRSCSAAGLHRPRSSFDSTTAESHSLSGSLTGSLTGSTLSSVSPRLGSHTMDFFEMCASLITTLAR
T3 sequence (O43741 whole entry partner): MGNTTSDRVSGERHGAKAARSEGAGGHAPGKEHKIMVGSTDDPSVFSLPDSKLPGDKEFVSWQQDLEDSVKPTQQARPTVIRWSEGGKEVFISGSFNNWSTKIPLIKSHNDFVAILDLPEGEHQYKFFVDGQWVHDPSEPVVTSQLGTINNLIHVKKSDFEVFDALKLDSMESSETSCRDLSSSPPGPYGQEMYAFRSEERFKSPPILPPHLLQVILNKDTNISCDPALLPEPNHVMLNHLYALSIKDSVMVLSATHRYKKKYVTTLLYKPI
T3 sequence (P54619 whole entry): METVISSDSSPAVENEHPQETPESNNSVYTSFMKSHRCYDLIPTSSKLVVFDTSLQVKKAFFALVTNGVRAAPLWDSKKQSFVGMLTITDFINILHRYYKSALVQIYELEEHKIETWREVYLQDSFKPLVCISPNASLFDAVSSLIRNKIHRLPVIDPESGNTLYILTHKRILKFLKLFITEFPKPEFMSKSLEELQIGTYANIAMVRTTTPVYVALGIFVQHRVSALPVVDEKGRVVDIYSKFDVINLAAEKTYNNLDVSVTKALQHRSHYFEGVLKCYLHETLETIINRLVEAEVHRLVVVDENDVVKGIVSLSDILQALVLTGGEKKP
T2 sequence (Q9UGJ0 whole entry R531G, one chain of several): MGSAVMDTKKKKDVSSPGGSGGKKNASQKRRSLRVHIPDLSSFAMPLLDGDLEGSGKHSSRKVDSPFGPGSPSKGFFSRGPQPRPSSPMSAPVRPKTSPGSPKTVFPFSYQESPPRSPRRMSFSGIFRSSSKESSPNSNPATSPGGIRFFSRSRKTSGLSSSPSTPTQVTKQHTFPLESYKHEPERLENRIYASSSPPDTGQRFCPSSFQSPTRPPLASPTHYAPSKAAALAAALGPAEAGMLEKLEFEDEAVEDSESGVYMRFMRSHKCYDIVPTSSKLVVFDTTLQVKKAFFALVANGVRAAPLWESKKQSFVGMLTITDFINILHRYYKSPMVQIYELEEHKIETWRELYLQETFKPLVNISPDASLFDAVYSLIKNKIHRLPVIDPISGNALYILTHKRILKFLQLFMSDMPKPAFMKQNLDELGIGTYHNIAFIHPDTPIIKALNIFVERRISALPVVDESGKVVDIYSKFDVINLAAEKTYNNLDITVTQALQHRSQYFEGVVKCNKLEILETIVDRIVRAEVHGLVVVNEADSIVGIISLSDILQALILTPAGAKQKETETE
T1 sequence (Q9UGJ0 whole entry, one chain of several): as the sequence (Q9UGJ0 whole entry R531G, one chain of several) above, with G531R counted along it

`[H]/N=C(/N)N/C(=N/[H])NCCc1ccccc1` [phenformin]: in assay [1], the “activation of AMPK complexes containing WT γ2” value was “activated”. Moreover, the “activation of AMPK complexes containing the R531G mutant” value in assay [2] is “not activated”.

In the case of `Nc1ncnc2c1ncn2[C@@H]1O[C@H](COP(=O)(O)O)C[C@H]1O` [CoMP, cordycepin 5′-monophosphate], the EC50 in assay [3] is 68 ± 12 µM; in assay [4] (setting [8]), 120 ± 50 µM; in assay [4] (5 mM ATP, maximal activation constrained to 4.4-fold), 1400 µM. The “potency as an allosteric activator, less potent than AMP” value in assay [4] (200 μM ATP) is “≈ 30 fold”. The IC50 in assay [4] (200 μM ATP, estimated, maximal activation constrained to 4.4-fold, read-out: IC50 of inactivation) was 500 ± 180 µM. In addition, the “activation and Thr172 phosphorylation of AMPK by LKB1” value in assay [5] is reported as “promoted”.

Regarding `Nc1ncnc2nc(-c3ccc(N4CCOCC4)nc3)cc(-c3cccc(Br)c3)c12` [ABT-702, 4-amino-5-(3-bromophenyl)-7-(6-morpholinopyridin-3-yl)pyrido[2,3-d]pyrimidine], in assay [6], the “effect of cordycepin to activate and phosphorylate AMPK” value is “blocked”; the “effects of AICA riboside on AMPK” value was “also blocked”.

For `Nc1ncnc2c1ncn2[C@@H]1O[C@H](COP(=O)(O)OP(=O)(O)OP(=O)(O)O)[C@@H](O)[C@H]1O` [ATP], in assay [7], the Km was determined as 36 ± 3 µM, the “estimated Vmax as phosphate donor” value was 1.02 and the “effect on allosteric activation by AMP” value is “antagonize”.

As to `Nc1ncnc2c1ncn2[C@@H]1O[C@H](COP(=O)(O)OP(=O)(O)OP(=O)(O)O)C[C@H]1O` [CoTP, cordycepin triphosphate], in assay [7], the Km came out at 22 ± 3 µM, the “estimated Vmax as phosphate donor” value was 0.92 and the “effect on allosteric activation by AMP” value is “antagonize”.

`Nc1ncnc2c1ncn2[C@@H]1O[C@H](COP(=O)(O)O)[C@@H](O)[C@H]1O` [AMP, reference compound] registered a maximal allosteric activation in assay [4] (200 μM ATP) of 4.4 ± 0.1 fold. Further, the EC50 in assay [4] (setting [8]) was 3.8 ± 0.2 µM. Besides, the IC50 in assay [4] (200 μM ATP, read-out: IC50 (concentration giving half-maximal inhibition)) was 1600 ± 100 µM. The allosteric activation entry in assay [7] (ATP or CoTP concentrations increased to 5 mM) is reported as “abolished”; in assay [7] (kinase assayed using either 200 μM ATP or CoTP as substrate) it was 4 fold.

Consider `N#Cc1c(O)c2c(-c3ccc(-c4ccccc4O)cc3)csc2[nH]c1=O` [A-769662], for which, in assay [1], the “activation of AMPK complexes containing WT γ2” value is “activated”. For the same compound, the “activation of AMPK complexes containing the R531G mutant” value in assay [2] is on record as “still activated”.

For `OCCN(CCO)c1nc(N2CCCCC2)c2nc(N(CCO)CCO)nc(N3CCCCC3)c2n1` [dipyridamole], in assay [6], the “effect of cordycepin to activate and phosphorylate AMPK” value is on record as “blocked”; the “effects of AICA riboside on AMPK” value was “also blocked”.

As usually defined, the EC50 is the midpoint of the concentration-response curve. In general, Km refers to the substrate concentration at which the rate is half of its maximum.
